Results on 9 compounds are retold here after patent US7473700B2, “1,2,4-triazole derivatives, processes for the preparation thereof, and pharmaceutical compositions containing the same” (CJ Corporation, priority 2002, dated 2009).

The term inhibition denotes the relative decrease from the control value, in per cent.

In one assay the target is T1, COX-1 (Homo sapiens, UniProt P23219).
T1 construct: host or cells: U-937 human lymphoma cells
As to the kind of experiment: Assay for the COX-1 inhibitory activity using U-937 (PGE2 inhibition). The class given is cell-based. As to conditions: 1 μM test compound; U-937 human lymphoma cells; PGE2 after arachidonic acid; read-out: Cyclooxygenase (COX) Inhibition (%) COX-1 (1 μM). The protocol:
The collected cells were diluted with HBSS (×1, Hank's balanced salt solution) to a concentration of 1×10^6 cells/ml. 1 ml of the dilute cell solution was placed into each well of 12-well plates. 5 μl of 1 μM solution of a test compound in DMSO and 5 μl of DMSO as a control were added to the wells. The wells were incubated in CO2 incubator at 37° C. for 15 minutes. Separately, 10 mM stock solution of arachidonic acid in ethanol was diluted ten times in ethanol to prepare 1 mM solution of arachidonic acid. Arachidonic acid acts as a substrate. 10 μl of the 1 mM solution of arachidonic acid was added to each well and incubated at CO2 incubator at 37° C. for 30 minutes. The cell solution of each well was placed in a centrifuge test tube and centrifuged at 10,000 rpm at 4° C. for 5 minutes. The concentration of PGE2 in the collected cells and the supernatant was quantified by means of a monoclonal kit (Cayman Chemicals). The percentages of PGE2 inhibition in a group of the test compound-treated cells in relation to a group of the DMSO-treated cells were calculated. Based on the calculated values, the COX-1 inhibitory activities were evaluated.
(§1) The percentages of the COX inhibition were calculated according to the following equation: % Inhibition=(concentration of PGE2 in test compound-untreated sample−concentration of PGE2 in test compound-treated sample)/(concentration of PGE2 in test compound-untreated sample)×100

The next assay has as its target T2, COX-2 (Mus musculus, UniProt Q05769).
T2 construct: host or cells: RAW 264.7 cells, aspirin-pretreated, then induced with interferon gamma and LPS
T2 sequence (Q05769 18-604): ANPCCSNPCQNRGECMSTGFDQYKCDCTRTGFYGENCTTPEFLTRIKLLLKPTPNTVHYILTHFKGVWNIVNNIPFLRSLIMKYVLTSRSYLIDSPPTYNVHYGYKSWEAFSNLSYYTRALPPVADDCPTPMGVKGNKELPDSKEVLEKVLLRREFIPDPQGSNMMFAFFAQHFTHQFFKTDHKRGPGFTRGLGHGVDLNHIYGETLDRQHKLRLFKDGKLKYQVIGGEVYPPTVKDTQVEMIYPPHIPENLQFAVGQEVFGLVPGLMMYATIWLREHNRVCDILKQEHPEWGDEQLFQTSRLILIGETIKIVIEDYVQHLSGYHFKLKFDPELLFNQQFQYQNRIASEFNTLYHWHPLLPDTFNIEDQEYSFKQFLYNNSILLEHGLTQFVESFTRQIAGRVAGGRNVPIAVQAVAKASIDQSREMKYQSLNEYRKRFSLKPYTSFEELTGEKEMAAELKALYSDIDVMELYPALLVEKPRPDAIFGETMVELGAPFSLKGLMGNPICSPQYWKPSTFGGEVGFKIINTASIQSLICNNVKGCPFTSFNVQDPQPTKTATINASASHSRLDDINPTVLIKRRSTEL
As to the kind of experiment: Assay for the COX-2 inhibitory activity using RAW 264.7 cell line (PGE2 inhibition). The class given is cell-based. The conditions noted are these: RAW264.7, 10 nM test compound, RAW 264.7 cells, interferon γ and LPS, 18 hours, read-out: Cyclooxygenase (COX) Inhibition (%) COX-2 (10 nM). On the procedure:
Each well was treated with 250 μM of aspirin and incubated at 37° C. for 2 hours. After the culture media were replaced with new culture media, the new culture media were treated with a test compound (10 nM) and incubated for 30 minutes. Then, each well was treated with interferon γ (100 units/ml) and lipopolysaccharide (LPS, 100 ng/ml) and incubated for 18 hours. The culture media were transferred to other test tubes. The concentration of PGE2 was quantified by means of the EIA kit (Cayman Chemicals).
as §1

T1 sequence (P23219 24-599): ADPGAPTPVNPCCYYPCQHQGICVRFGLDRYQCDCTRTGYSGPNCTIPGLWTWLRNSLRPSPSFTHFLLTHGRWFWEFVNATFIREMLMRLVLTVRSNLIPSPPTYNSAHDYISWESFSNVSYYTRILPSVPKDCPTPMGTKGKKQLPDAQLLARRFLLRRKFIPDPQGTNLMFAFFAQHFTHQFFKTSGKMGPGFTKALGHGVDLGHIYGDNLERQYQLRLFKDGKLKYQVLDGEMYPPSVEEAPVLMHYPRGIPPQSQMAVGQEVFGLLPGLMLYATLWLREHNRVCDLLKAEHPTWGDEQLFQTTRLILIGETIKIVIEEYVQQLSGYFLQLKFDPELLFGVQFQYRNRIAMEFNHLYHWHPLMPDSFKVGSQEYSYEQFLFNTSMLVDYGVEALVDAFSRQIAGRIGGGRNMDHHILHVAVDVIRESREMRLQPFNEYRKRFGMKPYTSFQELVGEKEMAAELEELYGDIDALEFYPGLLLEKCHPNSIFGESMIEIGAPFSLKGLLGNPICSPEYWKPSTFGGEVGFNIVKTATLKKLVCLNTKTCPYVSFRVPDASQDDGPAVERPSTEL

As for `NS(=O)(=O)c1ccc(-n2nc(OCC(F)(F)F)nc2-c2ccc(F)cc2)cc1` [Example 56, 4-[3-(2,2,2-trifluoroethoxy)-5-(4-fluorophenyl)-1,2,4-triazole-1-yl]-benzenesulfonamide], the inhibition at 1 µM on COX-1 was 37.2%. Further, the inhibition at 0.01 µM at COX-2 was found to be 27.7%.
In the same order, the values of `NS(=O)(=O)c1ccc(-n2nc(OCCCl)nc2-c2ccccc2)cc1` [Example 57, 4-[3-(2-chloroethoxy)-5-phenyl-1,2,4-triazole-1-yl]-benzenesulfonamide] are 21.4% and 26.6%.
For the compound `NS(=O)(=O)c1ccc(-n2nc(OC3CC3)nc2-c2ccccc2)cc1` [Example 58, 4-[3-cyclopropoxy-5-phenyl-1,2,4-triazole-1-yl]-benzenesulfonamide], the inhibition at 1 µM at COX-1 worked out at 34.3%. Moreover, on COX-2, the inhibition at 0.01 µM is 30.4%.
Regarding `COc1ccc(-c2nc(OC)nn2-c2ccc(S(C)(=O)=O)cc2)cc1` [Example 59, 1-(4-methanesulfonylphenyl)-3-methoxy-5-(4-methoxylphenyl)-1H-1,2,4-triazole], on COX-1, the inhibition at 1 µM is 22.6%. In addition, on COX-2, the inhibition at 0.01 µM was 27.2%.
Consider `COc1nc(-c2ccccc2)n(-c2ccc(S(C)(=O)=O)cc2)n1` [Example 60, 1-(4-methanesulfonylphenyl)-3-methoxy-5-phenyl-1H-1,2,4-triazole], for which, at COX-1, the inhibition at 1 µM amounted to 23.4%. Besides, the inhibition at 0.01 µM at COX-2 is 23.4%.
As to `CCOc1nc(-c2ccc(OC)cc2)n(-c2ccc(S(C)(=O)=O)cc2)n1` [Example 61, 1-(4-methanesulfonylphenyl)-3-ethoxy-5-(4-methoxylphenyl)-1H-1,2,4-triazole], the inhibition at 1 µM on COX-1 was 33.1%. In addition, the inhibition at 0.01 µM on COX-2 worked out at 34.2%.
`CCOc1nc(-c2ccccc2)n(-c2ccc(S(C)(=O)=O)cc2)n1` [Example 62, 1-(4-methanesulfonylphenyl)-3-ethoxy-5-phenyl-1H-1,2,4-triazole]: on COX-1, the inhibition at 1 µM is 26%. The inhibition at 0.01 µM at COX-2 is 25.4%.
Regarding `COc1ccc(-c2nc(OC(C)C)nn2-c2ccc(S(C)(=O)=O)cc2)cc1` [Example 63, 1-(4-methanesulfonylphenyl)-3-isopropoxy-5-(4-methoxyphenyl)-1H-1,2,4-triazole], on COX-1, the inhibition at 1 µM is 22.6%. Moreover, on COX-2, the inhibition at 0.01 µM turned out to be 26.4%.
For `CC(C)Oc1nc(-c2ccccc2)n(-c2ccc(S(C)(=O)=O)cc2)n1` [Example 64, 1-(4-methanesulfonylphenyl)-3-isopropoxy-5-phenyl-1H-1,2,4-triazole], the inhibition at 1 µM at COX-1 stood at 23.4%. Moreover, the inhibition at 0.01 µM on COX-2 came out at 33.1%.
